The values that follow are results of earlier work, collected in US7872044B2, “Inhibitors of chymase” (Janssen Pharmaceutica NV, priority 2006, dated 2011).

The series relates to angiotensin II activity in human vascular extracts. The following applies: background statement.

With `NCCCC[C@H](N[C@@H](CCc1ccccc1)C(=O)O)C(=O)N1CCC[C@H]1C(=O)O` [lisinopril], the “angiotensin II activity inhibited” value was “about 8%”.
